Measured values taken from US9302012B2, “Anti-bacterial siderophore-aminopenicillin conjugates” (University of Notre Dame Du Lac, priority 2012, dated 2016).

Test system: collection of strains of P. aeruginosa
Test: Agar well diffusion test (several strains)
Format: cell-based, Pseudomonas aeruginosa
Settings: control samples
Procedure: Conjugates 10 and 11 were first evaluated for their antibacterial ability against a collection of strains of P. aeruginosa using the agar well diffusion test. The influence of iron concentration on antibacterial activity was probed as well by conducting assays in iron-rich and iron-deficient media.
All liquids and media were sterilized by autoclaving (121° C., 15 min) before use. All aqueous solutions and media were prepared using distilled, deionized, and filtered water (Millipore Milli-Q Advantage A10 Water Purification System). Luria broth (LB) was purchased from VWR. Mueller-Hinton No. 2 broth (MHII broth; cation adjusted) was purchased from Sigma-Aldrich (St. Louis, Mo.). Iron-deficient (—Fe) MHII broth was prepared by adding 0.8 mL of a 1 mg/mL sterile aq. solution of 2,2′-bipyridine to 49.2 mL of MHII broth. Iron-rich (+Fe) MHII broth was prepared by adding 0.8 mL of a 1 mg/mL sterile aq. solution of FeCl3 to 49.2 mL of MHII broth. Mueller-Hinton No. 2 agar (MHII agar; HiMedia Laboratories) was purchased from VWR. Iron-deficient (−Fe) MHII agar was prepared by adding 0.5 mL of a 1 mg/mL sterile aq. solution of 2,2′-bipyridine to 34 mL of melted MHII agar with gentle mixing. Iron-rich (+Fe) MHII agar was prepared by adding 0.5 mL of a 1 mg/mL sterile aq. solution of FeCl3 to 34 mL of melted MHII agar with gentle mixing. See also Wencewicz, T. A. Dissertation, University of Notre Dame, Notre Dame, Ind., 2011, for relevant techniques.
Antibacterial Susceptibility Testing by the Agar Diffusion Assay.
Antibacterial activity of the compounds was determined by a modified Kirby-Bauer agar diffusion assay. Overnight cultures of test organisms were grown in LB broth for 18-24 h and standard suspensions of […] were prepared in saline solution (0.9% NaCl) according to a 0.5 BaSO4 McFarland Standard. This standardized suspension (0.1 mL) was added to 34 mL of sterile, melted agar (−Fe or +Fe) tempered to 47-50° C. After gentle mixing, the inoculated agar media was poured into a sterile plastic petri dish (145 mm×20 mm) and allowed to solidify near a flame with the lid ajar for about 30 min. Wells of 9.0 mm diameter were cut from the petri dish agar and filled with exactly 50 μL of the test sample solution. The petri dish was incubated at 37° C. for 18-24 h and the inhibition zone diameters were measured (mm) with an electronic caliper after 24 h.

Row | SMILES | inhibitory effect in the agar well diffusion test
1 | CC(=O)Oc1cccc(C(=O)NCCCC(CCCNC(=O)c2cccc(OC(C)=O)c2OC(C)=O)(CCCNC(=O)c2cccc(OC(C)=O)c2OC(C)=O)NC(=O)CCC(=O)O)c1OC(C)=O [Compound 9] | did not show any inhibitory effect
2 | CC(=O)Oc1cccc(C(=O)NCCCC(CCCNC(=O)c2cccc(OC(C)=O)c2OC(C)=O)(CCCNC(=O)c2cccc(OC(C)=O)c2OC(C)=O)NC(=O)CCC(=O)N[C@@H](C(N)=O)c2ccccc2)c1OC(C)=O [Compound S1] | did not show any inhibitory effect
